Test results published in patent publication US20220192192A1, “LOW VOLATILITY HERBICIDAL COMPOSITIONS” (Monsanto Technology LLC, priority 2012, published 2022).

Test: Measurement of dicamba volatility (humidome): dicamba concentration in air by LC-MS
Assay type: physicochemical
Conditions: di- and tri-carboxylic acids tested in dicamba compositions
From the text: Humidomes obtained from Hummert International (Part Nos 14-3850-2 for humidomes and 11-3050-1 for 1020 flat tray) were modified by cutting a 2.2 cm diameter hole on one end approximately 5 cm from the top to allow for insertion of a glass air sampling tube (22 mm OD) containing a polyurethane foam (PUF) filter. The sampling tube was secured with a VITON o-ring on each side of the humidome wall. The air sampling tube external to the humidome was fitted with tubing that was connected to a vacuum manifold immediately prior to sampling. […] The flat tray bottom containing the dicamba formulation on soil was covered with the humidome lid and the lid was secured with clamps. The assembled humidomes were placed in a temperature and humidity controlled environment and connected to a vacuum manifold through the air sampling line. Air was drawn through the humidome and PUF at a rate of 2 liters per minute (LPM) for 24 hours at which point the air sampling was stopped. The humidomes were then removed from the controlled environment and the PUF filter was removed. The PUF filter was extracted with 20 mL of methanol and the solution was analyzed for dicamba concentration using LC-MS methods known in the art. […] Where glyphosate was added or was part of the formulation, glyphosate was present at a concentration of 2.4% a.e. or 2.0 lb/A a.e. Where 2,4-D was added or was part of the formulation, 2,4-D was present at 2.4% ae or 2.0 lb/A ae at 10 gallons per acre (GPA). The growth chambers were set at 35° C. and 40% relative humidity (RH). For each composition four separate humidome boxes were sprayed to have 4 replicate measurements for each formulation. Tables 3-1 to 3-12 below provide the mean concentration of dicamba in air for the tested formulations.

effect of the acid on dicamba volatility | SMILES
did not reduce dicamba volatility | O=C(O)CC(O)(CC(=O)O)C(=O)O [citric acid]
did not reduce dicamba volatility | O=C(O)CC(O)C(=O)O (stereo not shown) [malic acid]
did not reduce dicamba volatility | O=C(O)C(=O)O [oxalic acid]
did not reduce dicamba volatility | O=C(O)CCC(=O)O [succinic acid]
